Patent US20110003321A1, “Monitoring of Intercellular Mitochondorial Polarization” (Kyushu University National University Corporation, priority 2005, published 2011)

How the values were obtained:
Type in all cases: cell-based
[1] = tested on: Human pancreas cancer cells MIA PaCa-2; experiment: Survival rate by counting the number of cells (trypan blue, standard method), combined use of agents; conditions: 25 μM each agent; 48 hours after medium replacement; FIG. 12
Description: The effect of combined use of plural agents was evaluated by a method including co-culturing a test agent with the cells, and counting the number of reduced cells by apoptosis. Human pancreas cancer cells MIA PaCa-2 were used as the test cells. A cell suspension of 5×10^4 cells/mL was prepared with the use of EMEM (Eagles' minimum essential medium) containing 10% (v/v) FBS, 50 units/mL penicillin, 50 μg/mL streptomycin, and 100 μM nonessential amino acid, and 5 mL of the cell suspension was poured into each 6-cm petri dish and pre-cultured at 37° C. with the CO2 concentration of 5%. After 24 hours, either a replacement with new 5 mL EMEM (DMSO used as the solvent of the phenol component was contained at the final concentration of 0.1% (v/v)) containing 25 μM quercetin, 25 μM trans-resveratrol, or both 25 μM quercetin and 25 μM trans-resveratrol in addition to the medium, or a replacement with 5 mL EMEM containing only 0.1% (v/v) DMSO as a control was carried out, and then culturing was carried out. Forty eight hours after the medium was replaced, trypan blue staining was carried out, and then the number of cells was counted with a hemocytometer. Comparison was carried out for the respective conditions, with 100 representing the number of cells in the control.

[2] = tested on: Human pancreas cancer cells MIA PaCa-2; experiment: Measurement of SPR angle, agents alone or in combination; conditions: 25 μM each agent; 50 minutes after the administration; FIG. 13
Description: SPR angles were measured with the above-described SPR sensor (tilting sensor) at the temperature of 37.0° C. Likewise in the measurement of the survival rate, a cell suspension of 2×10^6 cell/mL was prepared, and 100 μL of the cell suspension was dropped onto a gold plate for SPR measurement and cultured for 20 hours at 37° C. with the CO2 concentration of 5%. After 20 hours, the plate was placed on the prism of the SPR sensor, and on the plate was filled 5 mL EMEM. Then, measurement was started. Ten minutes after the measurement was started, either a replacement with new 5 mL EMEM (DMSO used as the solvent of the phenol component was contained at a final concentration of 0.1% (v/v)) containing 25 μM quercetin, 25 μM trans-resveratrol, or both 25 μM quercetin and 25 μM trans-resveratrol, or a replacement with 5 mL EMEM containing only 0.1% (v/v) DMSO as a control was carried out, and then the measurement of the changes in SPR angle was continued for another 50 minutes.

[3] = tested on: Human liver cancer cells HepG-2; experiment: Evaluation of lipid metabolism activity using SPR; conditions: 25 μM and 50 μM fenofibrate; especially about 20 minutes after the reagent was added; FIG. 2
Description: Measurement of SPR signals and fluorescent microscopic observation were carried out using a device having a fluorescent microscope located above living cells, which cells are a target of the measurement, and an SPR sensor located under the living cells. […] An optical system of Kretschmann configuration was used as an SPR sensor. BK7 (with a refractive index of 1.51) was used as a prism. A semiconductor laser (with a wavelength of 670 nm, an output of 3 mW, and a beam diameter of 1 mm) was used as a light source. A silicon photodiode detector was used as a detector. The measurement was carried out in the atmosphere (with 20% O2 and 0.035% CO2), unless otherwise stated.
(§1) Human liver cancer cells HepG-2 were used as test cells. A liquid medium EMEM containing 100 μM nonessential amino acid, 50 units/mL penicillin, 50 μg/mL streptomycin, and 10% (v/v) FBS was prepared, at 37° C. with a CO2 concentration of 5%, to be used as a complete medium, and the cells were pre-cultured in the complete medium and then used in the testing. Fenofibrate (2-[4-(4-Chlorobenzoyl)phenoxy]-2-methylpropanoic acid isopropyl ester) was used as a lipid metabolism promoting agent. Lipid metabolism activity was evaluated at the time when 25 μM fenofibrate was added and at the time when 50 μM fenofibrate was added. […]

[4] = tested on: Human liver cancer cells HepG-2; experiment: Monitoring mitochondrial polarized state using fluorescent reagent JC-1 (HepG-2); conditions: fenofibrate medium; especially about 20 minutes after the reagent was added; FIG. 3
Description: The fluorescent microscopic observation was carried out with the use of Axioplan 2 (Carl Zeiss) as a microscope, a 75-W xenon lamp as a light source, and NTE/CCD Detector MicroMAX-512BFT (Princeton Instruments) as a detector. Images were obtained and analyzed with the use of fluorescence analysis software, MetaFluor Imaging System Ver. 4.65 (Universal Imaging).
as §1
Following pre-culture, the test cells were removed from the petri dish, and the concentration of the test cells in the complete medium was adjusted to 2×10^6 cell/mL. […] To detect fluorescence, a set of filters that transmitted 515-565 nm and a set of filters that transmitted 575-640 nm were used. […]

Structure (SMILES): O=c1c(O)c(-c2ccc(O)c(O)c2)oc2cc(O)cc(O)c12 [quercetin, Quercetin]
- survival rate (number of cells, control = 100) [1]: 76.1%
- change in SPR angle [2]: approximately 0.05 degrees

Structure (SMILES): CC(C)OC(=O)C(C)(C)Oc1ccc(C(=O)c2ccc(Cl)cc2)cc1 [fenofibrate, 2-[4-(4-Chlorobenzoyl)phenoxy]-2-methylpropanoic acid isopropyl ester]
- changes in SPR signals resulting from mitochondrial polarization due to activation of lipid metabolism [3]: changes (−) were observed in the SPR signals
- fluorescence intensity (JC-1) resulting from mitochondrial polarization due to activation of lipid metabolism [4]: increase in fluorescence intensity

Structure (SMILES): Oc1ccc(/C=C/c2cc(O)cc(O)c2)cc1 [trans-resveratrol]
- survival rate (number of cells, control = 100) [1]: 56.2%
- change in SPR angle [2]: approximately 0.05 degrees
